In the supplement of paper PMC4862054:

Tests used:
Conditions in all cases: incubation time: 72 h
BT-474 [1] = assay: normalised response (% of control), CellTiter-Glo; higher = more viable cells (100 = DMSO, 0 = benzethonium chloride kill control)
Summary of the method: (§1)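 A 20 µl suspension of breast cancer cells was seeded into each well of 384-well plates containing compound at 5 concentrations in 10-fold steps over a compound-specific 10,000-fold range. After 72 h incubation, CellTox Green fluorescence (485/520 nm) was read first, and CellTiter-Glo luminescence was read after 10 min at room temperature. Each plate was normalised against 0.1 % DMSO (100) and a positive kill control (0), and each value is the normalised signal at one concentration.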

BT-549 [2] = assay: as above
Summary of the method: as §1

CAL-120 [3] = assay: as above
Summary of the method: as §1

CAL-148 [4] = assay: as above
Summary of the method: as §1

CAL-51 [5] = assay: as above
Summary of the method: as §1

CAL-85-1 [6] = assay: as above
Summary of the method: as §1

DU-4475 [7] = assay: as above
Summary of the method: as §1

HCC1143 [8] = assay: as above
Summary of the method: as §1

HCC1599 [9] = assay: as above
Summary of the method: as §1

HCC1937 [10] = assay: as above
Summary of the method: as §1

HDQ-P1 [11] = assay: as above
Summary of the method: as §1

Hs578T [12] = assay: as above
Summary of the method: as §1

MCF-10A = assay: as above
Summary of the method: as §1

MDA-MB-231 [13] = assay: as above
Summary of the method: as §1

MDA-MB-436 [14] = assay: as above
Summary of the method: as §1

MDA-MB-453 [15] = assay: as above
Summary of the method: as §1

MDA-MB-468 [16] = assay: as above
Summary of the method: as §1

MFM-223 [17] = assay: as above
Summary of the method: as §1

SK-BR-3 [18] = assay: as above
Summary of the method: as §1

BT-474 [19] = assay: normalised viability (% of control), CellTiter-Blue; higher = more viable cells (100 = DMSO, 0 = benzethonium chloride kill control)
Procedure: (§2)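 DSRT, CellTiter-Blue viability, 72 h incubation. Signal is normalised to DMSO and benzethonium chloride controls. Value is the normalised response at dose 1.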

BT-549 [20] = assay: as above
Procedure: as §2

CAL-120 [21] = assay: as above
Procedure: as §2

CAL-148 [22] = assay: as above
Procedure: as §2

CAL-51 [23] = assay: as above
Procedure: as §2

CAL-85-1 [24] = assay: as above
Procedure: as §2

DU-4475 [25] = assay: as above
Procedure: as §2

HCC1143 [26] = assay: as above
Procedure: as §2

HCC1599 [27] = assay: as above
Procedure: as §2

HCC1937 [28] = assay: as above
Procedure: as §2

HDQ-P1 [29] = assay: as above
Procedure: as §2

Hs578T [30] = assay: as above
Procedure: as §2

MDA-MB-231 [31] = assay: as above
Procedure: as §2

MDA-MB-436 [32] = assay: as above
Procedure: as §2

MDA-MB-453 [33] = assay: as above
Procedure: as §2

MDA-MB-468 [34] = assay: as above
Procedure: as §2

MFM-223 [35] = assay: as above
Procedure: as §2

SK-BR-3 [36] = assay: as above
Procedure: as §2

## Cc1c(N)nc([C@H](CC(N)=O)NC[C@H](N)C(N)=O)nc1C(=O)N[C@H](C(=O)N[C@H](C)[C@@H](O)[C@H](C)C(=O)N[C@H](C(=O)NCCc1nc(-c2nc(C(=O)NCCC[S+](C)C)cs2)cs1)[C@@H](C)O)[C@@H](OC1OC(CO)C(O)C(O)C1OC1OC(CO)C(O)C(OC(N)=O)C1O)c1cnc[nH]1 (stereo partly specified) [Bleomycin] (1 nM)
BT-474 [1]
  normalised response: 96.3%
BT-549 [2]
  normalised response: 104%
CAL-120 [3]
  normalised response: 99%
CAL-148 [4]
  normalised response: 93.2%
CAL-51 [5]
  normalised response: 113%
CAL-85-1 [6]
  normalised response: 97.4%
DU-4475 [7]
  normalised response: 97.1%
HCC1143 [8]
  normalised response: 96.4%
HCC1599 [9]
  normalised response: 90.8%
HCC1937 [10]
  normalised response: 98%
HDQ-P1 [11]
  normalised response: 96.4%
Hs578T [12]
  normalised response: 97.3%
MCF-10A
  normalised response: 93.2%
MDA-MB-231 [13]
  normalised response: 92.3%
MDA-MB-436 [14]
  normalised response: 102%
MDA-MB-453 [15]
  normalised response: 105%
MDA-MB-468 [16]
  normalised response: 95.5%
MFM-223 [17]
  normalised response: 96.5%
SK-BR-3 [18]
  normalised response: 103%
BT-474 [19]
  normalised viability: 84.4%
BT-549 [20]
  normalised viability: 97.3%
CAL-120 [21]
  normalised viability: 89.3%
CAL-148 [22]
  normalised viability: 112%
CAL-51 [23]
  normalised viability: 94.5%
CAL-85-1 [24]
  normalised viability: 97.8%
DU-4475 [25]
  normalised viability: 116%
HCC1143 [26]
  normalised viability: 92.5%
HCC1599 [27]
  normalised viability: 126%
HCC1937 [28]
  normalised viability: 92.7%
HDQ-P1 [29]
  normalised viability: 91.5%
Hs578T [30]
  normalised viability: 98.8%
MDA-MB-231 [31]
  normalised viability: 86.7%
MDA-MB-436 [32]
  normalised viability: 121%
MDA-MB-453 [33]
  normalised viability: 91.7%
MDA-MB-468 [34]
  normalised viability: 85.4%
MFM-223 [35]
  normalised viability: 102%
SK-BR-3 [36]
  normalised viability: 83.4%

## Cc1cc2c(F)c(Oc3ncnn4cc(OC[C@@H](C)O)c(C)c34)ccc2[nH]1 [Brivanib] (0.1 nM)
BT-474 [1]
  normalised response: 104%
BT-549 [2]
  normalised response: 100%
CAL-120 [3]
  normalised response: 101%
CAL-148 [4]
  normalised response: 106%
CAL-51 [5]
  normalised response: 114%
CAL-85-1 [6]
  normalised response: 101%
DU-4475 [7]
  normalised response: 104%
HCC1143 [8]
  normalised response: 104%
HCC1599 [9]
  normalised response: 111%
HCC1937 [10]
  normalised response: 101%
HDQ-P1 [11]
  normalised response: 97.9%
Hs578T [12]
  normalised response: 104%
MCF-10A
  normalised response: 108%
MDA-MB-231 [13]
  normalised response: 107%
MDA-MB-436 [14]
  normalised response: 101%
MDA-MB-453 [15]
  normalised response: 104%
MDA-MB-468 [16]
  normalised response: 113%
MFM-223 [17]
  normalised response: 105%
SK-BR-3 [18]
  normalised response: 111%
BT-474 [19]
  normalised viability: 93.5%
BT-549 [20]
  normalised viability: 109%
CAL-120 [21]
  normalised viability: 78.7%
CAL-148 [22]
  normalised viability: 107%
CAL-51 [23]
  normalised viability: 93.4%
CAL-85-1 [24]
  normalised viability: 86.7%
DU-4475 [25]
  normalised viability: 109%
HCC1143 [26]
  normalised viability: 101%
HCC1599 [27]
  normalised viability: 96%
HCC1937 [28]
  normalised viability: 82.1%
HDQ-P1 [29]
  normalised viability: 84.9%
Hs578T [30]
  normalised viability: 112%
MDA-MB-231 [31]
  normalised viability: 99.5%
MDA-MB-436 [32]
  normalised viability: 114%
MDA-MB-453 [33]
  normalised viability: 104%
MDA-MB-468 [34]
  normalised viability: 104%
MFM-223 [35]
  normalised viability: 96.5%
SK-BR-3 [36]
  normalised viability: 98%

## CC(C)C[C@H](NC(=O)[C@H](CCc1ccccc1)NC(=O)CN1CCOCC1)C(=O)N[C@@H](Cc1ccccc1)C(=O)N[C@@H](CC(C)C)C(=O)[C@@]1(C)CO1 [Carfilzomib] (0.1 nM)
BT-474 [1]
  normalised response: 108%
BT-549 [2]
  normalised response: 97.3%
CAL-120 [3]
  normalised response: 103%
CAL-148 [4]
  normalised response: 109%
CAL-51 [5]
  normalised response: 124%
CAL-85-1 [6]
  normalised response: 105%
DU-4475 [7]
  normalised response: 103%
HCC1143 [8]
  normalised response: 104%
HCC1599 [9]
  normalised response: 120%
HCC1937 [10]
  normalised response: 105%
HDQ-P1 [11]
  normalised response: 110%
Hs578T [12]
  normalised response: 100%
MCF-10A
  normalised response: 106%
MDA-MB-231 [13]
  normalised response: 107%
MDA-MB-436 [14]
  normalised response: 105%
MDA-MB-453 [15]
  normalised response: 108%
MDA-MB-468 [16]
  normalised response: 109%
MFM-223 [17]
  normalised response: 104%
SK-BR-3 [18]
  normalised response: 105%
BT-474 [19]
  normalised viability: 116%
BT-549 [20]
  normalised viability: 105%
CAL-120 [21]
  normalised viability: 89.8%
CAL-148 [22]
  normalised viability: 99.9%
CAL-51 [23]
  normalised viability: 110%
CAL-85-1 [24]
  normalised viability: 95.5%
DU-4475 [25]
  normalised viability: 107%
HCC1143 [26]
  normalised viability: 100%
HCC1599 [27]
  normalised viability: 100%
HCC1937 [28]
  normalised viability: 84.8%
HDQ-P1 [29]
  normalised viability: 95.6%
Hs578T [30]
  normalised viability: 100%
MDA-MB-231 [31]
  normalised viability: 132%
MDA-MB-436 [32]
  normalised viability: 101%
MDA-MB-453 [33]
  normalised viability: 96.9%
MDA-MB-468 [34]
  normalised viability: 100%
MFM-223 [35]
  normalised viability: 83.4%
SK-BR-3 [36]
  normalised viability: 99.7%
